# In patent publication US12043670B2, “Anti-BCMA antibody-drug conjugates and methods of use” (Eisai R&D Management Co., Ltd., priority 2020, dated 2024):
# Read-outs that look alike come from different tables or passages of the source.
# Key:
# MM1.S cells = assay: CellTiter-Glo cell viability, MM1.S; format: cell-based, human; conditions: for GI50: Homo sapiens
# [1] = system: splicing of Ad2.2 pre-mRNA in HeLa nuclear extract; assay: In vitro splicing (IVS), qPCR readout, Ad2.2 substrate; format: biochemical
# Description: To evaluate payload activity in a cell-free system, an in vitro splicing assay was performed. The payloads were incubated with nuclear extracts and pre-mRNA substrate minigenes.
# HeLa nuclear extract preparation: HeLa S3 cell pellets were resuspended in hypotonic buffer (10 mM HEPES pH 7.9, 1.5 mM MgCl2, 10 mM KCl, 0.2 mM PMSF, 0.5 mM DTT) and the suspension was brought up to a total of 5 packed cell volume (PCV). After centrifugation, the supernatant was discarded, and the cells were brought up to 3 PCV with hypotonic buffer and incubated on ice for 10 min. Cells were lysed using a dounce homogenizer and then centrifuged. The supernatant was discarded, and the pellet was resuspended with ½ packed nuclear volume (PNV) of low salt buffer (20 mM HEPES pH 7.9, 1.5 mM MgCl2, 20 mM KCl, 0.2 mM EDTA, 25% glycerol, 0.2 mM PMSF, 0.5 mM DTT), followed by ½ PNV of high salt buffer (same as low salt buffer except 1.4 M KCl). The nuclei were gently mixed for 30 min before centrifuging. The supernatant (nuclear extract) was then dialyzed into storage buffer (20 mM HEPES pH 7.9, 100 mM KCl, 0.2 mM EDTA, 20% glycerol, 0.2 mM PMSF, 0.5 mM DTT). Protein concentration was determined using NanoDrop 8000 UV-Vis spectrophotometer (ThermoFisher Scientific). […]
smiles,measurement,setting,value
"CC[C@H](O)[C@@H](C)[C@H]1O[C@@H]1C[C@@](C)(O)/C=C/C=C(\C)[C@H]1OC(=O)C[C@H](O)CC[C@@](C)(O)[C@@H](OC(=O)N2CCNCC2)/C=C/[C@@H]1C [D1, (2S,3S,6S,7R,10R,E)-7,10-dihydroxy-2-((R,2E,4E)-6-hydroxy-7-((2R,3R)-3-((2R,3S)-3-hydroxypentan-2-yl)oxiran-2-yl)-6-methylhepta-2,4-dien-2-yl)-3,7-dimethyl-12-oxooxacyclododec-4-en-6-yl piperazine-1-carboxylate]",GI50,"MM1.S cells; MM1.S, 96 h, read-out: CTGlo Mean GI50 MM1.S 96 h",37.1 nM
same,GI50,"MM1.S cells; MM1.S, 144 h",88.4 nM
same,AUC (nM * % relative viability),"MM1.S cells; MM1S cells, 6 days",644.3501 nM * % relative viability
same,LD50,"MM1.S cells; MM1S cells, 6 days, CellTiter-Glo",302.924 nM
same,RminAve,"MM1.S cells; MM1S cells, 6 days, negative = cell death vs T0",−99.8996%
same,CTGlo Mean LD50 MM1.S 96 h,"MM1.S cells; payload alone, MM1.S, 96 h",98.2 nM
same,IC50,[1],25 nM
